Assay [1] relates to planktonic organisms. Kind of assay: Dynamic flow loop test, planktonic kill after 4 hour contact time. The assay is classed as cell-based. Conditions: 112.5 ppm active THPS.
Description: (§1) Evaluation of the biocide compositions disclosed herein was performed through a dynamic flow loop test where both planktonic and sessile organisms could be monitored. To start this testing, fluid from the field, as well as cultured organisms from the field, were placed into the system and allowed to grow for approximately 7 weeks, providing a mature biofilm that can then be challenged by the biocide treatment.
(§2) The test system holds approximately 1.5 liters of fluid that are continually circulated over 1018 carbon steel biostuds located in the 6 o'clock position of a modified Robbin's device. The device holds a maximum of eight biostuds in the 6 o'clock position. The production fluid was pumped through the system at a rate of approximately 3.1 gallons per minute, which allows for deposition of microorganisms and solids onto the biostuds. The health of the microbial population was monitored weekly during the biofilm growth period using ATP quantification.
(§3) After concluding the establishment of a mature biofilm, the sessile kill study was initiated. […] A baseline reading was taken, during all of the studies, prior to the addition of the chemical to the individual flow loop. […]
Planktonic kill in the dynamic flow loops was also evaluated immediately after a 4 hour contact time with the biocide.
Assay [2] concerns biofilm (sessile organisms) on 1018 carbon steel biostuds. Kind of assay: Dynamic flow loop test, sessile kill study and biofilm regrowth. The following applies: within 24 hours. The assay is classed as cell-based.
Description: as §1, §2, §3
The initial data point before treatment is set to 100% and all other readings are reported as a percent change compared to the baseline. […]

On to “tetrakis(hydroxymethyl)phosphonium sulphate [THPS]”, for which the “Planktonic kill, % reduction” value in assay [1] came out at 81.8%. The “Biofilm size after treatment compared to before treatment” value in assay [2] was “larger than it was before treatment”.
